Data from US11899022B2, “Multiplexed proteomics and predictive drug candidate assessment” (The General Hospital Corporation, priority 2017, dated 2024).
pIC50: −log10 of the molar value.

How the values were obtained:
[1] = tested on: breast cancer cell lines with dysregulated centromere complex; assay: Drug response (AUC) of cell lines with vs without dysregulation in the centromere complex; assay type: cell-based; details: 41 breast cancer cell lines, AUC ratio, FIG. 32B
Experimental: (§1) The drug candidates were screened at different concentrations, and the response to each drug candidate was measured as an area under the curve (AUC). Three known complexes—the BRCA1-associated genome surveillance complex, the centromere, and the proteasome—were selected from the CORUM database, and for each complex, the cell lines evaluated were separated into a first group in which cell lines carried dysregulated protein-protein interactions on any of the proteins in the complex, and a second group in which cell lines carried no dysregulations on any of the proteins in the complex.
(§2) Each figure is a plot showing how protein-protein interaction dysregulation in one of the selected complexes affects the responses of the evaluated breast cancer cell lines to different drug candidates. In each plot, every data point represents a different drug candidate. The horizontal axis in each plot represents the base 2 logarithm of the ratio of the drug candidate response in cell lines with dysregulation to the drug candidate response in cell lines without dysregulation. The vertical axis in each plot, which corresponds to the base 10 logarithm of the Grubbs test p-value, represents the significance of the drug candidate response difference.

Aurora Kinases = details: cited from earlier work
[2] = tested on: breast cancer cell lines with dysregulated proteasome complex; assay: Drug response (AUC) of cell lines with vs without dysregulation in the proteasome complex; assay type: cell-based; details: 41 breast cancer cell lines, AUC ratio, FIG. 32C
Experimental: as §1
as §2, with “difference. […]” for “difference.”

ALK = ALK (Homo sapiens, UniProt Q9UM73); assay: Proteomic/phosphoproteomic profiling of ALK phosphorylation after Ceritinib treatment; assay type: cell-based
Experimental: The H3122 parental and LDKR1-4 cell lines were each grown in culture with or without the addition of Ceritinib for 24 hours, and harvested cells were subsequently processed for both proteomic and phosphoproteomic analyses. Specifically, each of the cell lines was cultured in RPMI-1640 media supplemented with 10% FBS, 100 units/mL penicillin, and 100 μg/mL streptomycin. Cells were treated for 24 hours with 300 nM Ceritinib (also known as LDK378). Cells were collected, and the cell pellets were resuspended in mammalian lysis buffer and lysed by passage through a 21 gauge needle. The lysate was centrifuged at 15,000×g for 5 minutes at 4° C., and insoluble debris was discarded.
The lysates were then prepared for mass spectrometry analysis. Samples were reduced with DTT, alkylated with iodoacetamide, and precipitated with methanol/chloroform. […] Samples were quenched with 1% TFA and desalted using Sep-Pak C18 (SPE) cartridges (obtained from Waters Corp., Milford, MA). The peptide concentration of each sample was determined using a BCA assay.
For phosphoproteomic analysis, 2.0 mg of digested peptides were enriched for phosphopeptides using titanium dioxide beads, labeled with TMT10-plex reagents, and further enriched with a phosphotyrosine antibody. Specifically, 8 mg of titanium dioxide beads were incubated with the peptide in binding buffer (2 M lactic acid in 50% ACN/50% H2O) for 1 hour with gentle shaking. […] Samples were acidified and desalted over Sep-Pak C18 SPE cartridges.

LDKR1-4 cell lines = assay: Ceritinib sensitivity of resistant clones LDKR1-4; assay type: cell-based
Experimental: (§3) In the particular study reported here, resistance to the small molecule ALK inhibitor Ceritinib was studied. The patient-derived cell line H3122 is a NSCLC line with an EML4-ALK fusion, and it is sensitive to Ceritinib. To simulate the clinical development of therapeutic resistance following initial treatment, this cell line was cultured over a period of 6 months with low but increasing doses of Ceritinib. […] These clones were expanded and comprise the cell lines LDKR1-4.
(§4) FIG. 5 is a schematic diagram showing the development of the cell lines.

H3122 cell line = assay: Ceritinib sensitivity of parental H3122 cell line; assay type: cell-based; details: Homo sapiens, NCI-H3122; ALK-positive H3122 parental cell line
Experimental: as §3, §4

[3] = tested on: breast cancer cell lines with dysregulated BRCA1-associated genome surveillance complex; assay: Drug response (AUC) of cell lines with vs without dysregulation in the BRCA1-associated genome surveillance complex; assay type: cell-based; details: 41 breast cancer cell lines, AUC ratio dysregulated/not dysregulated, FIG. 32A
Experimental: as §1, §2

[4] = target: T1, polo-like Kinase 4 (PLK4) (Homo sapiens, UniProt O00444); details: cited from earlier work
T1 sequence (O00444 1-970): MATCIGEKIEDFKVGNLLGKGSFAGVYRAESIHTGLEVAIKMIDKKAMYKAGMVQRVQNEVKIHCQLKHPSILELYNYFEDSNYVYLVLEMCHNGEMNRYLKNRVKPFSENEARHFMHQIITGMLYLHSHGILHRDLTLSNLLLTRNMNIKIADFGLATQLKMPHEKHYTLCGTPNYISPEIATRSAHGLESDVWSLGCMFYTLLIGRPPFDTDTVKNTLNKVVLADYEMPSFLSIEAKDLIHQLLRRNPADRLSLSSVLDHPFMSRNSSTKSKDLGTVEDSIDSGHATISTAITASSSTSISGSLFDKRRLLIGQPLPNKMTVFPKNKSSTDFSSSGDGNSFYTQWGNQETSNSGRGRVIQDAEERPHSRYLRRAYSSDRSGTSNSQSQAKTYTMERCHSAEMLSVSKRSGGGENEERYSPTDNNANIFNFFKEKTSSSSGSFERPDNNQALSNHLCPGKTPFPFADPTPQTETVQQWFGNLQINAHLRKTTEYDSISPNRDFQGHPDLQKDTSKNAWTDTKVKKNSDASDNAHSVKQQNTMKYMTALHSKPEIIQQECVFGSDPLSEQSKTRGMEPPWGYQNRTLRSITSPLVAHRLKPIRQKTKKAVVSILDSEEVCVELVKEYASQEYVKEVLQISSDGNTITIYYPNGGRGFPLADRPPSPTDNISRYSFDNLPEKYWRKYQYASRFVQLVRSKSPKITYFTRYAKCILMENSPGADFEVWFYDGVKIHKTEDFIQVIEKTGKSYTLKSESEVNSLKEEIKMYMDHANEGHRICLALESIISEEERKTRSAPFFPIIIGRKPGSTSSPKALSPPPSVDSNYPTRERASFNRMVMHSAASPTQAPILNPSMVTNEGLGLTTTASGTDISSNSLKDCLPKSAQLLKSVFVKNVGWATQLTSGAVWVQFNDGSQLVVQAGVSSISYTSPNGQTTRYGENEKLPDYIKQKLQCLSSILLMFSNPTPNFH

[5] = parental H3122, 300 nM Ceritinib, 24 hours, ratio to parental with no drug

Chain of ALK (Q9UM73 with tags, fused parts or gaps): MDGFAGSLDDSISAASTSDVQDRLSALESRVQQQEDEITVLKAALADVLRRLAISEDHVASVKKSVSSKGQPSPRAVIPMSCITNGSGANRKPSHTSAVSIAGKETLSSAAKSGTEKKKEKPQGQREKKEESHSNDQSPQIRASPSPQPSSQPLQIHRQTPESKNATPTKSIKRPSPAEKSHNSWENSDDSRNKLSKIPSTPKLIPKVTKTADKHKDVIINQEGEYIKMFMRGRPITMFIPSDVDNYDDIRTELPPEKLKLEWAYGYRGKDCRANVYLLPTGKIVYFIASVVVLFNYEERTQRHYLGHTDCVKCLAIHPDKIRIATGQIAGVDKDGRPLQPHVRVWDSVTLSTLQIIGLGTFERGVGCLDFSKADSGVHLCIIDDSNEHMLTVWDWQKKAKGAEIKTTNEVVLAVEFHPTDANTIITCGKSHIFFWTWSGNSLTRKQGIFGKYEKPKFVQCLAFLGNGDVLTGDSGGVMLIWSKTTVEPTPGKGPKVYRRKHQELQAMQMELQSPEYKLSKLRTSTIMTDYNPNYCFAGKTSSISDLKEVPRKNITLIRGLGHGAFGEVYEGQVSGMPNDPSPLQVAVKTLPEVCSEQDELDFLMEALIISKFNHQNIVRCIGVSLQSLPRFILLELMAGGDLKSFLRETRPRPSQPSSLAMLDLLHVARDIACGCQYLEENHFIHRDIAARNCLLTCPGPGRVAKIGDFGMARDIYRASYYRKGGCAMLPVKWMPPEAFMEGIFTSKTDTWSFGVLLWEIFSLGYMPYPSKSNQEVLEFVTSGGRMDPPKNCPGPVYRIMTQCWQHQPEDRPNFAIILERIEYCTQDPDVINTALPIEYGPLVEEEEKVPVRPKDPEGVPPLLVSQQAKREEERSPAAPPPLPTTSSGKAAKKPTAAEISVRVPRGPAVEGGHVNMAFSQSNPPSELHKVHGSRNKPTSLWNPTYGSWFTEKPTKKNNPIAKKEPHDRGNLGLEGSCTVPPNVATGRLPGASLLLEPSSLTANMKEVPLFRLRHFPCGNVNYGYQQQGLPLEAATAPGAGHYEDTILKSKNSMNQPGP

In the case of `O=C(CCCCCCNC(=O)c1cnc(N(c2ccccc2)c2ccccc2)nc1)NO` [ACY-1215], the “effect of dysregulation in the centromere complex on cell line response to drug” value [1] was “sensitize”.
In the case of `Cc1cc(Nc2nc(N[C@@H](C)c3ncc(F)cn3)ncc2Cl)n[nH]1` [AZD1480], the “inhibition of Aurora Kinases” value (Aurora Kinases) is given as “potently inhibit”.
For `C#Cc1cccc(Nc2ncnc3cc(OC)c(OCCCCCCC(=O)NO)cc23)c1` [CUDC-101], the “effect of dysregulation in the centromere complex on cell line response to drug” value [1] was “sensitize”.
In the case of `CC(C)C[C@H](NC(=O)[C@H](CCc1ccccc1)NC(=O)CN1CCOCC1)C(=O)N[C@@H](Cc1ccccc1)C(=O)N[C@@H](CC(C)C)C(=O)[C@@]1(C)CO1` [Carfilzomib], the “effect of dysregulation in the proteasome complex on cell line response to drug” value [2] was “densensitized”.
With `Cc1cc(Nc2ncc(Cl)c(Nc3ccccc3S(=O)(=O)C(C)C)n2)c(OC(C)C)cc1C1CCNCC1` [Ceritinib] the “inhibition of ALK activity in resistant cell lines” value (ALK; LDKR1-4, Ceritinib treatment) was “continued to be effective at inhibiting ALK activity in at least three of the four resistant cell lines”, the “ALK Thr 1506/Tyr 1507/Ser 1509 phosphorylation upon drug treatment” value (ALK; [5]) was “decreasing fourfold” and the “ALK Tyr 1078 phosphorylation upon drug treatment” value (ALK; [5]) was “decreased”. The “IC50 relative to the parental sensitive cell line” value (LDKR1-4 cell lines; four resistant clones vs parental H3122) was “at least twenty times higher”, the pIC50 (LDKR1-4 cell lines; resistant clones LDKR1-4) was 5.41 to 5.83 and the pIC50 (H3122 cell line) was 7.28.
For `Nc1ccn([C@@H]2O[C@H](CO)[C@@H](O)C2(F)F)c(=O)n1` [Gemcitabine], the “effect of dysregulation in the genome surveillance complex on cell line response to drug” value [3] was “sensitize”.
In the case of `O=C(/C=C/c1ccc(CN(CCO)CCc2c[nH]c3ccccc23)cc1)NO` [LAQ824], the “effect of dysregulation in the centromere complex on cell line response to drug” value [1] was “sensitize”.
In the case of `NC(=O)Nc1sc(-c2ccc(F)cc2)cc1C(N)=O` [TPCA-1], the “inhibition of Aurora Kinases” value (Aurora Kinases) is given as “potently inhibit”.
In the case of `COc1cc2c(Oc3ccc(NC(=O)C4(C(=O)Nc5ccc(F)cc5)CC4)cc3F)ccnc2cc1OCCCN1CCOCC1` [XL-880, foretinib], the “inhibition of Aurora Kinases” value (Aurora Kinases) is listed as “potently inhibit” and the “inhibition of polo-like Kinase 4 (PLK4)” value [4] is listed as “inhibits”.
For Bleomycin, the “effect of dysregulation in the genome surveillance complex on cell line response to drug” value [3] was “sensitize”.
